Measured values published in ChEMBL document CHEMBL1201862, “PubChem BioAssay data set” (2004).
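Grown in 96-well plates, cells were treated for 48 hours with each compound at five concentrations. Insufficient inhibition: endpoint recorded as highest concentration tested. GI50 marks 50% less growth.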 Calls of active or inactive are those of the source. Cut-off read from the data, not from the text of the source: active = GI50 up to about 1.1 µM and inactive = higher.

How the values were obtained:
Experiment in all cases: NCI-60 cell line screen, 48 h
786-0 = tested on: 786-0
A498 = tested on: A498
A549 = tested on: A549
ACHN = tested on: ACHN
CAKI-1 = tested on: CAKI-1
CCRF-CEM = tested on: CCRF-CEM
COLO 205 = tested on: COLO 205
DLD-1 = tested on: DLD-1
DMS-114 = tested on: DMS-114
DMS-273 = tested on: DMS-273
EKVX = tested on: EKVX
HCC 2998 = tested on: HCC 2998
HCT-116 = tested on: HCT-116
HCT-15 = tested on: HCT-15
HOP-18 = tested on: HOP-18
HOP-62 = tested on: HOP-62
HOP-92 = tested on: HOP-92
HT-29 = tested on: HT-29
IGROV-1 = tested on: IGROV-1
K562 = tested on: K562
KM-20L2 = tested on: KM-20L2
KM12 = tested on: KM12
LOX IMVI = tested on: LOX IMVI
LXFL 529 = tested on: LXFL 529
M14 = tested on: M14
MOLT-4 = tested on: MOLT-4
Malme-3M = tested on: Malme-3M
NCI-H23 = tested on: NCI-H23
NCI-H460 = tested on: NCI-H460
NCI-H522 = tested on: NCI-H522
OVCAR-3 = tested on: OVCAR-3
OVCAR-4 = tested on: OVCAR-4
OVCAR-5 = tested on: OVCAR-5
OVCAR-8 = tested on: OVCAR-8
RPMI-8226 = tested on: RPMI-8226
RXF 393 = tested on: RXF 393
RXF 631 = tested on: RXF 631
SF-268 = tested on: SF-268
SF-295 = tested on: SF-295
SF-539 = tested on: SF-539
SK-MEL-28 = tested on: SK-MEL-28
SK-MEL-2 = tested on: SK-MEL-2
SK-MEL-5 = tested on: SK-MEL-5
SK-OV-3 = tested on: SK-OV-3
SN12C = tested on: SN12C
SNB-19 = tested on: SNB-19
SNB-75 = tested on: SNB-75
SNB-78 = tested on: SNB-78
SR = tested on: SR
SW-620 = tested on: SW-620
TK-10 = tested on: TK-10
U-251 = tested on: U-251
UACC-257 = tested on: UACC-257
UACC-62 = tested on: UACC-62
UO-31 = tested on: UO-31
XF498 = tested on: XF498
HL-60 = tested on: HL-60
M19-MEL = tested on: M19-MEL
NCI-H226 = tested on: NCI-H226

## O=C(O)CCC(NC(=O)c1ccccc1)C(=O)O (centres undefined)
786-0
  GI50: > 100 µM (inactive)
A498
  GI50: > 100 µM (inactive)
A549
  GI50: > 100 µM (inactive)
ACHN
  GI50: > 100 µM (inactive)
CAKI-1
  GI50: > 100 µM (inactive)
CCRF-CEM
  GI50: > 100 µM (inactive)
COLO 205
  GI50: 52.1 µM (inactive)
DLD-1
  GI50: > 100 µM (inactive)
DMS-114
  GI50: > 100 µM (inactive)
DMS-273
  GI50: > 100 µM (inactive)
EKVX
  GI50: > 100 µM (inactive)
HCC 2998
  GI50: > 100 µM (inactive)
HCT-116
  GI50: 58.7 µM (inactive)
HCT-15
  GI50: > 100 µM
HOP-18
  GI50: > 100 µM (inactive)
HOP-62
  GI50: > 100 µM (inactive)
HOP-92
  GI50: > 100 µM (inactive)
HT-29
  GI50: > 100 µM (inactive)
IGROV-1
  GI50: > 100 µM (inactive)
K562
  GI50: > 100 µM (inactive)
KM-20L2
  GI50: > 100 µM (inactive)
KM12
  GI50: > 100 µM (inactive)
LOX IMVI
  GI50: > 100 µM (inactive)
LXFL 529
  GI50: > 100 µM (inactive)
M14
  GI50: > 100 µM (inactive)
MOLT-4
  GI50: > 100 µM (inactive)
Malme-3M
  GI50: > 100 µM (inactive)
NCI-H23
  GI50: > 100 µM (inactive)
NCI-H460
  GI50: > 100 µM (inactive)
NCI-H522
  GI50: > 100 µM (inactive)
OVCAR-3
  GI50: > 100 µM (inactive)
OVCAR-4
  GI50: > 100 µM (inactive)
OVCAR-5
  GI50: > 100 µM (inactive)
OVCAR-8
  GI50: > 100 µM (inactive)
RPMI-8226
  GI50: > 100 µM (inactive)
RXF 393
  GI50: > 100 µM (inactive)
RXF 631
  GI50: > 100 µM (inactive)
SF-268
  GI50: > 100 µM (inactive)
SF-295
  GI50: > 100 µM (inactive)
SF-539
  GI50: > 100 µM (inactive)
SK-MEL-28
  GI50: > 100 µM (inactive)
SK-MEL-2
  GI50: > 100 µM (inactive)
SK-MEL-5
  GI50: > 100 µM (inactive)
SK-OV-3
  GI50: > 100 µM (inactive)
SN12C
  GI50: > 100 µM (inactive)
SNB-19
  GI50: > 100 µM (inactive)
SNB-75
  GI50: > 100 µM (inactive)
SNB-78
  GI50: > 100 µM (inactive)
SR
  GI50: > 100 µM (inactive)
SW-620
  GI50: 42.3 µM (inactive)
TK-10
  GI50: > 100 µM (inactive)
U-251
  GI50: > 100 µM (inactive)
UACC-257
  GI50: > 100 µM (inactive)
UACC-62
  GI50: > 100 µM (inactive)
UO-31
  GI50: > 100 µM (inactive)
XF498
  GI50: > 100 µM (inactive)

## N#Cc1c([N+](=O)[O-])cc(C(F)(F)F)cc1[N+](=O)[O-]
786-0
  GI50: 6.14 µM (inactive)
A498
  GI50: 18.2 µM (inactive)
A549
  GI50: 19.5 µM (inactive)
ACHN
  GI50: 7.5 µM (inactive)
CAKI-1
  GI50: 4.57 µM (inactive)
CCRF-CEM
  GI50: 1.09 µM (active)
COLO 205
  GI50: 4.88 µM (inactive)
DLD-1
  GI50: 3.87 µM (inactive)
DMS-114
  GI50: 1.88 µM (inactive)
DMS-273
  GI50: 4.49 µM (inactive)
EKVX
  GI50: 18 µM (inactive)
HCT-116
  GI50: 7.76 µM (inactive)
HCT-15
  GI50: 8.89 µM
HL-60
  GI50: 1.66 µM (inactive)
HOP-18
  GI50: 11.2 µM (inactive)
HOP-62
  GI50: 18.4 µM (inactive)
HOP-92
  GI50: 1.81 µM (inactive)
HT-29
  GI50: 2.96 µM (inactive)
IGROV-1
  GI50: 5.65 µM (inactive)
K562
  GI50: 2.05 µM (inactive)
KM-20L2
  GI50: 17.1 µM (inactive)
KM12
  GI50: 5.25 µM (inactive)
LOX IMVI
  GI50: 2.64 µM (inactive)
LXFL 529
  GI50: 2.07 µM (inactive)
M14
  GI50: 4.85 µM (inactive)
M19-MEL
  GI50: 2.54 µM (inactive)
MOLT-4
  GI50: 2.08 µM (inactive)
Malme-3M
  GI50: 8.2 µM (inactive)
NCI-H226
  GI50: 21.6 µM (inactive)
NCI-H23
  GI50: 7.94 µM (inactive)
NCI-H460
  GI50: 19.7 µM (inactive)
NCI-H522
  GI50: 0.59 µM (active)
OVCAR-3
  GI50: 16.7 µM (inactive)
OVCAR-4
  GI50: 2.11 µM (inactive)
OVCAR-5
  GI50: 18.1 µM (inactive)
OVCAR-8
  GI50: 2.09 µM (inactive)
RPMI-8226
  GI50: 2.57 µM (inactive)
RXF 393
  GI50: 2.44 µM (inactive)
RXF 631
  GI50: 9.79 µM (inactive)
SF-268
  GI50: 13.1 µM (inactive)
SF-295
  GI50: 4.74 µM (inactive)
SF-539
  GI50: 5.94 µM (inactive)
SK-MEL-28
  GI50: 8.73 µM (inactive)
SK-MEL-2
  GI50: 18.5 µM (inactive)
SK-MEL-5
  GI50: 15.3 µM (inactive)
SK-OV-3
  GI50: 19.1 µM (inactive)
SN12C
  GI50: 14.1 µM (inactive)
SNB-19
  GI50: 18.3 µM (inactive)
SNB-75
  GI50: 6.22 µM (inactive)
SNB-78
  GI50: 2.07 µM (inactive)
SR
  GI50: 2.16 µM (inactive)
SW-620
  GI50: 3.26 µM (inactive)
TK-10
  GI50: 13.7 µM (inactive)
U-251
  GI50: 18.8 µM (inactive)
UACC-257
  GI50: 6.7 µM (inactive)
UACC-62
  GI50: 5.04 µM (inactive)
UO-31
  GI50: 19.2 µM (inactive)
XF498
  GI50: 1.83 µM (inactive)
